Targets include Dipeptidyl peptidase 2 (Homo sapiens, UniProt Q9UHL4); Dipeptidyl peptidase 9 (Homo sapiens, UniProt Q86TI2); Dipeptidyl peptidase 8 (Homo sapiens, UniProt Q6V1X1); Dipeptidyl peptidase 4 (Homo sapiens, UniProt P27487).
A short description of another data set: in vivo. The conditions noted are these: rat.
A short description of data set [1]: Plasma clearance in rat. The class given is ADME, organism-based. As to conditions: read-out: Clp.
Data set [2] is described as follows: Half-life in rat. As to conditions: in vivo. The class given is ADME.

Each structure is given as a SMILES string.

Sequence of Dipeptidyl peptidase 9 (Q86TI2 whole entry): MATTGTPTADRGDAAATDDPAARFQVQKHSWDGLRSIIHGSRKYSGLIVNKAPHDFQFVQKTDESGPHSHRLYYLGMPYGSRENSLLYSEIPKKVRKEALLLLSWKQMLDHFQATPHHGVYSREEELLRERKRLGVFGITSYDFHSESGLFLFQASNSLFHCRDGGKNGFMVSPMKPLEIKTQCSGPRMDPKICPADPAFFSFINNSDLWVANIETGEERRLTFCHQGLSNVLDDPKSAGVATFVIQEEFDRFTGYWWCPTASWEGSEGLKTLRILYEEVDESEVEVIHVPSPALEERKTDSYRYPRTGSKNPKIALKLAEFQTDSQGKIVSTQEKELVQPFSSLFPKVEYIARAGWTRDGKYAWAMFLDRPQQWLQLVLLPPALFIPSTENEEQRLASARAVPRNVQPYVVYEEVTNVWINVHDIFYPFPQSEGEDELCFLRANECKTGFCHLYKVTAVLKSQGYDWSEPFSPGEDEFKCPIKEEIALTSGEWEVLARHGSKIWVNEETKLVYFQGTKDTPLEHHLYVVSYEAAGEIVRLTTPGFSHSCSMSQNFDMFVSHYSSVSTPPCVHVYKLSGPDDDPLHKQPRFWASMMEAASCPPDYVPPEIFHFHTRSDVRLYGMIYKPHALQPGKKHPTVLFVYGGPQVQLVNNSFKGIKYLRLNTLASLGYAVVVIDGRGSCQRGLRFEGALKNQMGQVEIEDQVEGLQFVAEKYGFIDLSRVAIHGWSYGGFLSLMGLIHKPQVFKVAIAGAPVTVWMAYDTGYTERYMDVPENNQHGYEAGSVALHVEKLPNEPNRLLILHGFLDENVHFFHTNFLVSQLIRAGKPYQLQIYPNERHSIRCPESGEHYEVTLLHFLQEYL
Sequence of Dipeptidyl peptidase 4 (P27487 whole entry): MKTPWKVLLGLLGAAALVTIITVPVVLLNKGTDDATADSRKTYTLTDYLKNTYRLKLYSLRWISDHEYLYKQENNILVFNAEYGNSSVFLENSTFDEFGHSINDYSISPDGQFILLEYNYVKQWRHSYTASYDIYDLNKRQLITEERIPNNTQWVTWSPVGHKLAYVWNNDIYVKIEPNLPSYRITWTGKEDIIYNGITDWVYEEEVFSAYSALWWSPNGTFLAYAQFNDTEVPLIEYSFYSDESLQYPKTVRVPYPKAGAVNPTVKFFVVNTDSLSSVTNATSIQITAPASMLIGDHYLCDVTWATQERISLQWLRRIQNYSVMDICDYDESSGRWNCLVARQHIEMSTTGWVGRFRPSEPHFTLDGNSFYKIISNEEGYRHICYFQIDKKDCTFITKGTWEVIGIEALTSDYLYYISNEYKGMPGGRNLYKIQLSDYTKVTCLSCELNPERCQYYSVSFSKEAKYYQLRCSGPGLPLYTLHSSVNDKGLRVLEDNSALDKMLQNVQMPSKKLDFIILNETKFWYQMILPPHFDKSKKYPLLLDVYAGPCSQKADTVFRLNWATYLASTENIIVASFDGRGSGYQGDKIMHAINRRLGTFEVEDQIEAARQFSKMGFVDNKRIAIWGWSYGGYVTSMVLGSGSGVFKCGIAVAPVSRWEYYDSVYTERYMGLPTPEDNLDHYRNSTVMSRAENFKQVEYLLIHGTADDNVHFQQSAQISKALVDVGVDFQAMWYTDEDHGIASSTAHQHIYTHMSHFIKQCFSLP
Sequence of Dipeptidyl peptidase 8 (Q6V1X1 whole entry): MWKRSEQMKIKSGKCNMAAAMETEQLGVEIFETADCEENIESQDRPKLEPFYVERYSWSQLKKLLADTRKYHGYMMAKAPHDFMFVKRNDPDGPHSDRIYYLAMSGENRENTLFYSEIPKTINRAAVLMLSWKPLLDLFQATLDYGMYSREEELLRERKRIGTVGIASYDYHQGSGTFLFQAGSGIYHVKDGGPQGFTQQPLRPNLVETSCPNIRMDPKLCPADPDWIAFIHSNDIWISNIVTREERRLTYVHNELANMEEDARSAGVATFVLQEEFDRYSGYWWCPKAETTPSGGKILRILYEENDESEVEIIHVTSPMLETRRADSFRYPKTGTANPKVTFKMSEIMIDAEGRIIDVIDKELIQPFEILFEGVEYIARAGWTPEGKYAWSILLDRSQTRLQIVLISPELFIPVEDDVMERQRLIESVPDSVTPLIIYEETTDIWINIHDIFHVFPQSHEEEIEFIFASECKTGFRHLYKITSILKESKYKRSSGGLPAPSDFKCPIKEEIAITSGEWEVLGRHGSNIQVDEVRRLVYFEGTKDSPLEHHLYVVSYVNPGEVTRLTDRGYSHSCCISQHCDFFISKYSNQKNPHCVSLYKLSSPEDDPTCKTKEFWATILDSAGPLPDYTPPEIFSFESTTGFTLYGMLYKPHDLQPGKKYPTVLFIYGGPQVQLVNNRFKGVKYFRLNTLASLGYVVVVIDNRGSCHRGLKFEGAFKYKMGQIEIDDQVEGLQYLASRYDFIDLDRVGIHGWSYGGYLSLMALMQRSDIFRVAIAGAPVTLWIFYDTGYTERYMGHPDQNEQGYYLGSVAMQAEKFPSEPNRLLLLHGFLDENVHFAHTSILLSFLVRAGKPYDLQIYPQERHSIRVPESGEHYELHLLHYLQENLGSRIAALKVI
Description for Dipeptidyl peptidase 2: Inhibitory concentration against dipeptidylpeptidase II (QPP)
Description for Dipeptidyl peptidase 4: Inhibitory concentration against dipeptidylpeptidase IV
Description for Dipeptidyl peptidase 8: Inhibitory concentration against dipeptidylpeptidase 8
Description for Dipeptidyl peptidase 9: Inhibitory concentration against dipeptidylpeptidase 9

For `N[C@H](C(=O)N1CC[C@H](F)C1)[C@@H](CO)c1ccc(-c2ccc(F)cc2)cc1`, the IC50 was 15 µM at Dipeptidyl peptidase 2, over 100 µM against Dipeptidyl peptidase 9, over 100 µM against Dipeptidyl peptidase 8 and 0.39 µM on Dipeptidyl peptidase 4.

For the compound `CN(C)C(=O)[C@@H](c1ccc(-c2cccc(-[n+]3ccccc3)c2)cc1)[C@H](N)C(=O)N1CC[C@H](F)C1`, the IC50 against Dipeptidyl peptidase 2 is 57 µM; on Dipeptidyl peptidase 9, over 100 µM; at Dipeptidyl peptidase 4, 0.019 µM.

Regarding `CN(C)C(=O)[C@@H](c1ccc(-c2ccc(F)cc2)cc1)[C@H](N)C(=O)N1CCSC1`, the IC50 was 8.5 µM on Dipeptidyl peptidase 2 and 0.0091 µM against Dipeptidyl peptidase 4.

As for `N[C@H](C(=O)N1CC[C@H](F)C1)[C@@H](C(=O)N1CCC1)c1ccc(-c2ccc(F)cc2)cc1`, the IC50 was 5.3 µM against Dipeptidyl peptidase 2, over 100 µM on Dipeptidyl peptidase 9 and 0.044 µM against Dipeptidyl peptidase 4.

`CN(C)C(=O)[C@@H](c1ccc(-c2ccc(F)cc2)cc1)[C@H](N)C(=O)N1CCCCC1`: the concentration for half-maximal inhibition (IC50) against Dipeptidyl peptidase 2 was 38 µM; against Dipeptidyl peptidase 9 it was over 100 µM; against Dipeptidyl peptidase 8 it was over 100 µM; against Dipeptidyl peptidase 4 it was 0.55 µM.

On to `NC(=O)[C@@H](c1ccc(-c2ccc(F)cc2)cc1)[C@H](N)C(=O)N1CC[C@H](F)C1`, for which the IC50 is over 100 µM at Dipeptidyl peptidase 2, over 100 µM at Dipeptidyl peptidase 9, over 100 µM against Dipeptidyl peptidase 8 and 0.11 µM at Dipeptidyl peptidase 4.

With `CCN(C)C(=O)[C@@H](c1ccc(-c2ccc(F)cc2)cc1)[C@H](N)C(=O)N1CC[C@H](F)C1`, the results for the IC50 against Dipeptidyl peptidase 2, on Dipeptidyl peptidase 9 and at Dipeptidyl peptidase 4 were 43 µM, over 100 µM and 0.02 µM, respectively.

As for `CN(C)C(=O)[C@@H](c1ccc(-c2ccc(F)cc2)cc1)[C@H](N)C(=O)N1CCC1`, the half-inhibitory concentration (IC50) was over 100 µM on Dipeptidyl peptidase 2, over 100 µM against Dipeptidyl peptidase 9, over 100 µM against Dipeptidyl peptidase 8 and 0.1 µM on Dipeptidyl peptidase 4.

As to `CN(C)C(=O)[C@@H](c1ccc(-c2ccc(F)cc2)cc1)[C@H](N)C(=O)N1CCOCC1`, the half-maximal inhibitory concentration (IC50) at Dipeptidyl peptidase 2 was 77 µM; against Dipeptidyl peptidase 9 it was over 100 µM; at Dipeptidyl peptidase 8 it was over 100 µM; at Dipeptidyl peptidase 4 it was 0.52 µM.

Regarding `CN(C)C(=O)[C@@H](c1ccc(-c2cccc(-n3cnnn3)c2)cc1)[C@H](N)C(=O)N1CC[C@H](F)C1.O=C(O)C(F)(F)F`, the concentration for half-maximal inhibition (IC50) at Dipeptidyl peptidase 2 was 29 µM; on Dipeptidyl peptidase 9 it was over 100 µM; against Dipeptidyl peptidase 8, over 100 µM; against Dipeptidyl peptidase 4 it was 0.0022 µM. Besides, the bioavailability in the data set “in vivo” was under 1%. Besides, the clearance in data set [1] was 18 mL/min/kg. In data set [2], this compound had a half-life of 44.4 min.

Regarding `N[C@H](C(=O)N1CC[C@H](F)C1)[C@@H](C(=O)NC1CC1)c1ccc(-c2ccc(F)cc2)cc1`, the IC50 at Dipeptidyl peptidase 2 is 55 µM; at Dipeptidyl peptidase 9, over 100 µM; on Dipeptidyl peptidase 4 it was 0.071 µM.

For the compound `CN(C)C(=O)[C@@H](c1ccc(-c2ccc(F)cc2)cc1)[C@H](N)C(=O)N1CCC[C@H]1C#N`, the half-inhibitory concentration (IC50) at Dipeptidyl peptidase 2 was 40 µM; on Dipeptidyl peptidase 4, 0.0033 µM.

As for `CN(C)C[C@@H](c1ccc(-c2ccc(F)cc2)cc1)[C@H](N)C(=O)N1CC[C@H](F)C1`, the IC50 is 2.5 µM against Dipeptidyl peptidase 2, over 100 µM against Dipeptidyl peptidase 9 and 1.6 µM against Dipeptidyl peptidase 4.

Take `CON(C)C(=O)[C@@H](c1ccc(-c2ccc(F)cc2)cc1)[C@H](N)C(=O)N1CC[C@H](F)C1`: the IC50 is over 100 µM against Dipeptidyl peptidase 2, over 100 µM on Dipeptidyl peptidase 9 and 0.045 µM against Dipeptidyl peptidase 4.

For the compound `CN(C)C(=O)[C@@H](c1ccc(-c2cc(F)ccc2F)cc1)[C@H](N)C(=O)N1CC[C@H](F)C1`, the half-maximal inhibitory concentration (IC50) against Dipeptidyl peptidase 2 is 11 µM; against Dipeptidyl peptidase 9 it was over 100 µM; against Dipeptidyl peptidase 4, 0.056 µM.

Turning to `CCN(CC)C(=O)[C@@H](c1ccc(-c2ccc(F)cc2)cc1)[C@H](N)C(=O)N1CC[C@H](F)C1`, the IC50 against Dipeptidyl peptidase 2 was 48 µM; against Dipeptidyl peptidase 9, over 100 µM; against Dipeptidyl peptidase 4 it was 0.059 µM.

Regarding `N[C@H](C(=O)N1CC[C@H](F)C1)[C@@H](C(=O)Nn1cnnn1)c1ccc(-c2ccc(F)cc2)cc1.O=C(O)C(F)(F)F`, the IC50 against Dipeptidyl peptidase 2 is over 100 µM; against Dipeptidyl peptidase 9, over 100 µM; on Dipeptidyl peptidase 4 it was 0.011 µM. The compound further had a bioavailability in the data set “in vivo” of under 1%. The clearance in data set [1] was 55 mL/min/kg. For the same compound, the half-life in data set [2] was 12 min.

Regarding `CN(C)C(=O)[C@@H](c1ccc(-c2ccc(F)cc2)cc1)[C@H](N)C(=O)N1CCCC1.O=C(O)C(F)(F)F`, the values for the IC50 on Dipeptidyl peptidase 2 and against Dipeptidyl peptidase 4 were 26 µM and 0.0075 µM, respectively. For the same compound, the bioavailability in “in vivo” came out at 100%. Moreover, the clearance in data set [1] worked out at 16 mL/min/kg. For the same compound, the half-life in data set [2] was 120 min.

Regarding `COC(=O)[C@@H](c1ccc(-c2ccc(F)cc2)cc1)[C@H](N)C(=O)N1CC[C@H](F)C1`, the IC50 on Dipeptidyl peptidase 2 is 21 µM; on Dipeptidyl peptidase 9, over 100 µM; against Dipeptidyl peptidase 8 it was over 100 µM; against Dipeptidyl peptidase 4 it was 0.22 µM.

The record behind these values is ChEMBL document CHEMBL1139622, “Discovery of potent and selective orally bioavailable beta-substituted phenylalanine derived dipeptidyl peptidase IV inhibitors” (Bioorg Med Chem Lett, 2005).
